Results reported in US12049474B2, “Nucleoside prodrugs and uses related thereto” (Emory University, priority 2019, dated 2024).
Several values for one entry are separate records, joined by “and”; a condition that tells them apart may be missing. Equal entries are not always repeated. Structures can show the parent of a compound that is named as a salt. Where two headings read alike, the source gives them in different places.

Tests used:
HEK293 cells = settings: 50% cytotoxic concentration; italicized results: absence of human serum albumin
CYP3A4 = CYP3A4 (Homo sapiens (Human), UniProt P08684); assay: Fluorometric CYP450 enzyme inhibition assay, CYP3A4; assay type: biochemical; settings: human recombinant CYP3A4, BFC substrate; read-out: CYP450 IC50 3A4
Protocol: (§1) The CYP450 inhibition assays utilized microsomes from insect cells expressing human recombinant individual cDNA-expressed CYP isoforms 3A4 and 2D6, as well as the fluorogenic probe that produces fluorescent metabolite. Standard inhibitors were co-incubated with fluorogenic substrates and their inhibitory potential (IC50) was determined. Assay conditions in terms of CYP450 protein concentration and time of incubation were standardized, enzyme kinetics parameters of each fluorescent probe substrate were estimated and IC50 values of inhibitors were determined and validated on different days to check reproducibility.
(§2) A 100 mM sodium phosphate buffer was prepared and adjusted to pH 7.4. In a separate falcon tube, a 2× enzyme/substrate (E/S) solution was prepared in phosphate buffer. The final concentration of CYP2D6 (CORNING®) and […] (AMMC) was 10 nM and 4 μM, and CYP3A4 (CORNING®) and 7-benzyloxy-4-(trifluoromethyl) coumarin (BFC) was 20 nM and 40 μM, respectively. In a separate falcon tube, a 2×NADPH regenerating system (NRS) was prepared in phosphate buffer. The final concentration for each component in the assay was as follows: • CYP2D6 assay: 0.008 mM NADPH, 3.3 mM glucose 6-phosphate, 0.4 U of glucose-6-phosphate dehydrogenase per mL
Both enzymatic assays were conducted in a 96-well microtiter plate (Black, CORNING® COSTAR®) with a final volume of 100 μL. Preparation of the plate began with the addition of 74 μL of the E/S in the first well, and 50 μL to all subsequent wells (from 2-11). […] A 1:3 serial dilution of the test compound was conducted by removing 25 μL from the first well and diluting it with the second and so forth until the tenth row. Final concentrations yielded a range from 200 μM-0.01 μM. Well no. 11 contained no inhibitor, and well no. 12 contained no enzyme. Both were used as controls for background fluorescence. The plate was incubated for 30 min at 37° C. After incubation, the reaction was initiated by the addition of 50 μL of the 2×NRS to each well.
Immediately (within 1 min) the fluorescence was measured using a microplate reader (BIOTEK® Synergy Neo2). […] Data was exported and analyzed using Graph Pad Prism 7. […] The IC50 value was derived after the data was fitted on a 10-point curve using a four-parameter logistic regression model.

[1] = Metabolic stability assay in human liver microsomes (HLM); assay type: in vitro ADME; settings: NADPH, sampled 0-120 min; for HLM t1/2: 3 μM test compound
Protocol: The LC-MS/MS analysis was performed using Agilent 1260 Infinity II HPLC, coupled with an Agilent G6460 triple quadrupole mass spectrometer (Agilent Technologies, USA). All the data were acquired employing Agilent 6460 Quantitative Analysis data processing software.
Reverse-phase HPLC separation for each compound was achieved either on an Agilent Porshell 120 EC-C8 column (2.1×50 mm, 2.7 μm), or on an Agilent Zorbax XDB C18 column (2.1×50 mm, 3.5 μm) with a mobile phase composed of methanol-water-formic acid or acetonitrile-water-formic acid (0.1%) at a flow rate of 0.5 mL/min (changes for some compounds). Each method was developed in the presence of an internal standard (ISTD) d5-7-ethoxy coumarin. The column temperature was maintained at 40° C. for most of the samples otherwise noted. The detection was operated in the Agilent JetStream electrospray positive ionization using multiple reaction monitoring mode (MRM).
Other MS conditions were as follows: dwell time 100 ms; gas flow 10 L/min; nebulizer pressure 45 psi; delta EMV 200 V; fragmentor voltage and collision energy for individual compounds vary.
Test compounds were dissolved in 100% DMSO or 100% MeOH to make 10 mM stock solutions. Verapamil (Sigma Aldrich) aided as a positive control and was dissolved in 100% DMSO to make 10 mM stock solutions. The 10 mM stock solution of test and control compounds were further diluted in potassium phosphate buffer (100 mM, pH 7.4) to 500 μM to ensure the organic solvent content was <0.2%. Human liver microsomes (HLMs) were purchased from Xenotech at 20 mg/mL. NADPH (Sigma Aldrich) 10 mM stocks were prepared in deionized water.
The HLM assay was prepared in a 1.5 mL Eppendorf tube with a final volume of 1100 μL for duplicate runs. Each reaction contained phosphate buffer (928.4 μL), liver microsomes (55 μL), and test compound resulting in a final concentration of 3 μM (6.6 μL of 500 μM). The reaction was initiated with 110 μL of 10 mM NADPH. Aliquots (100 μL) were removed in duplicate at 0, 15, 30, 60, 120 min (for prodrug compounds) and 0, 5, 10, 15, 30 min (verapamil, positive control compound) time intervals and quenched in cold […] of 100% methanol which contained internal standard (ISTD: d5-7-ethoxy coumarin 4 μM). Before centrifugation each of the aliquoted tubes were vortexed to make sure compounds were in the solution. The aliquots were centrifuged at 12,000 g for 5 min and the supernatant removed and placed in an LC-MS vial. Each time point was assessed using LC-MS and the area, based on the extracted ion, was integrated with respect to the ISTD. Positive controls were conducted at a final volume of 550 μL to give each time point in a single run. A no-NADPH negative control with test or control compound was performed in a single run (150 μL) at the longest time point. Controls were processed and analyzed like the test compounds. Each time point was run in duplicates followed by in-between blank washes to avoid the carryover and to equilibrate the column.

CYP2D6 = CYP2D6 (Homo sapiens (Human), UniProt P10635); assay: biochemical; assay type: biochemical; settings: human recombinant CYP2D6, AMMC substrate; read-out: CYP450 IC50 2D6
Protocol: as §1, §2
Both enzymatic assays were conducted in a 96-well microtiter plate (Black, CORNING® COSTAR®) with a final volume of 100 μL. Preparation of the plate began with the addition of 74 μL of the E/S in the first well, and 50 μL to all subsequent wells (from 2-11). The test compounds (1 μL) were dissolved in the first well to give the first row a final volume of 75 μL. A 1:3 serial dilution of the test compound was conducted by removing 25 μL from the first well and diluting it with the second and so forth until the tenth row. Final concentrations yielded a range from 200 μM-0.01 μM. Well no. 11 contained no inhibitor, and well no. 12 contained no enzyme. Both were used as controls for background fluorescence. The plate was incubated for 30 min at 37° C. After incubation, the reaction was initiated by the addition of 50 μL of the 2×NRS to each well.
Immediately (within 1 min) the fluorescence was measured using a microplate reader (BIOTEK® Synergy Neo2). CYP2D6 was monitored at Ex/Em=410/460 nm, and CYP3A4 monitored at Ex/Em=410/538 nm in kinetic mode that scanned every 5 min for 60 mins. Data was exported and analyzed using Graph Pad Prism 7. […] The IC50 value was derived after the data was fitted on a 10-point curve using a four-parameter logistic regression model.

HIV = assay: microbe, parasite or virus in culture; assay type: cell-based; settings: italicized results: absence of human serum albumin
[2] = dogs, cited from earlier work

CYP2D6, sequence (P10635 whole entry): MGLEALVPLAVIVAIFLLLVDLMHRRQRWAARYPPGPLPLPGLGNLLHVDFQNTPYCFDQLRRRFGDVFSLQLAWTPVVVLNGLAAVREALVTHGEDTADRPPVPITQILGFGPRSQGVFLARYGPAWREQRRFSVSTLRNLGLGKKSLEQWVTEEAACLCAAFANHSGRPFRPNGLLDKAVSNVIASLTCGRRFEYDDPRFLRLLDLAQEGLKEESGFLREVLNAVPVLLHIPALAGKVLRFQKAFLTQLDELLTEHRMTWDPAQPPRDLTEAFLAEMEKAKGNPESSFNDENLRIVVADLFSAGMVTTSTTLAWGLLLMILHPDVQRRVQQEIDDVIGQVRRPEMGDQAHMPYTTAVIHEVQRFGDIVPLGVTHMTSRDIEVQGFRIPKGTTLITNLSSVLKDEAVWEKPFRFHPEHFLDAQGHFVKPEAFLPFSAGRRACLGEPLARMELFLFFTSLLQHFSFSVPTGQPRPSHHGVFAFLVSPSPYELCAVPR
CYP3A4, sequence (P08684 whole entry, canonical isoform): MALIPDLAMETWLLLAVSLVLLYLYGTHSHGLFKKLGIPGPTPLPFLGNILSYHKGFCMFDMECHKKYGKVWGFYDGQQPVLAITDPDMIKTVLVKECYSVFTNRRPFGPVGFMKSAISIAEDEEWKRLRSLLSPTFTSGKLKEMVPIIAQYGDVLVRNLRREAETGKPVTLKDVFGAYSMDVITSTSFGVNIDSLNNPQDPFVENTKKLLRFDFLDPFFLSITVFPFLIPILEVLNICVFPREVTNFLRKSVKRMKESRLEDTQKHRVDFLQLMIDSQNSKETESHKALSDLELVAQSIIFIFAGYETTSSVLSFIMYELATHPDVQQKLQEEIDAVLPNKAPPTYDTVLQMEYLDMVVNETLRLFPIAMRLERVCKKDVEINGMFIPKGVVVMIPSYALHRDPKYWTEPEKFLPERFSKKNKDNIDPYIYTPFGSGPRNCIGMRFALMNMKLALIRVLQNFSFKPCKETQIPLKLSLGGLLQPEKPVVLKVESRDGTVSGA

Structure (SMILES) | CC50 (HEK293 cells) [µM] | IC50 (CYP3A4) [µM] | HLM t1/2 [1] [h] | IC50 (CYP2D6) [µM] | melting point | IC50 (HIV; Human immunodeficiency virus 1, HEK293, read-out: HIV IC50, pseudoviral particles, HEK293 cells) [µM] | IC50 (HIV; read-out: HIV IC50, pseudoviral particles, HEK293 cells) [µM] | half-life at 3 µM ([1]; pH 7.4, 3 μM test compound, read-out: HLM t1/2) [h] | fraction of dose converted to plasma TFV ([2]; single oral dose) [%] | fraction of dose sequestered for toxic side effects ([2]; single oral dose) [%] | fraction of dose that achieved access to plasma unscathed ([2]; single oral dose) [%] | fraction of a single oral dose extracted by the liver [2] [%] | IC50 (HIV; pseudoviral particles, HEK293 cells, read-out: HIV IC50)
C#CCCCCCCCCCCCCCOP(=O)(O)CO[C@H](C)Cn1cnc2c(N)ncnc21.N [EJM-8-006, Ammonium pentadec-14-yn-1-yl (R)-(((1-(6-amino-9H-purin-9-yl)propan-2-yl)oxy)methyl)phosphonate] | > 100 | 54.8 | 1.57 | 84.9 | – | – | – | – | – | – | – | – | –
CCCCCCCCCCCCCCCCCCOP(=O)(O)CO[C@H](C)Cn1cnc2c(N)ncnc21.N [MD-1-105, Ammonium Octadecyl (R)-(((1-(6-amino-9H-purin-9-yl)propan-2-yl)oxy)methyl)phosphonate] | 84.1 | 52.9 | 0.217 | 20 | 154 to 184 °C (dec.) | – | – | – | – | – | – | – | –
CCCCCCCCCCCCCCCOP(=O)(O)CO[C@H](C)Cn1cnc2c(N)ncnc21.N [MD-1-106, Ammonium Pentadecyl (R)-(((1-(6-amino-9H-purin-9-yl)propan-2-yl)oxy)methyl)phosphonate] | > 100 | 54.9 | 0.217 | 22 | 162 to 190 °C (dec.) | – | – | – | – | – | – | – | –
C#CCCCCCCCCCCCCCCOCCCOP(=O)(O)CO[C@H](C)Cn1cnc2c(N)ncnc21.N [MD-5-72, Ammonium 3-(hexadec-15-yn-1-yloxy)propyl (R)-(((1-(6-amino-9H-purin-9-yl)propan-2-yl)oxy)methyl)phosphonate] | > 100 | > 20 | >2 | > 20 | – | – | – | – | – | – | – | – | –
C[C@H](Cn1cnc2c(N)ncnc21)OCP(=O)(O)OCCCCCCCCCCCCCCCCC#C[Si](C)(C)C.N [NP-PD-042, Ammonium [(1R)-2-(6-aminopurin-9-yl)-1-methyl-ethoxy]methyl-(18-trimethylsilyloctadec-17-ynoxy)phosphinate] | 68.1 | 27 | >2 | 27.1 | – | – | – | – | – | – | – | – | –
C[C@H](Cn1cnc2c(N)ncnc21)OCP(=O)(O)OCCCCCCCCCCCCCCCCCC#CC(F)(F)F.N [NP-PD-102, Ammonium [(1R)-2-(6-aminopurin-9-yl)-1-methyl-ethoxy]methyl-(20,20,20-trifluoroicos-18-ynoxy)phosphinate] | 78.7 | > 20 | >2 | > 20 | – | – | – | – | – | – | – | – | –
C[C@H](Cn1cnc2c(N)ncnc21)OCP(=O)(O)OCCCCCCCCCCCCCCCCCCCC(F)(F)F.N [NP-PD-105, ammonium [(1R)-2-(6-aminopurin-9-yl)-1-methyl-ethoxy]methyl-(20,20,20-trifluoroicosoxy)phosphinate] | 72.4 | > 20 | >2 | > 20 | – | – | – | – | – | – | – | – | –
C[C@H](Cn1cnc2c(N)ncnc21)OCP(=O)(O)OCCCOCCCCCCCCCCCCCC#CC(F)(F)F.N [NP-PD-149, Ammonium [(1R)-2-(6-aminopurin-9-yl)-1-methyl-ethoxy]methyl-[3-(16,16,16-trifluorohexadec-14-ynoxy)propoxy]phosphinate] | > 100 | 12 | >2 | > 20 | – | – | – | – | – | – | – | – | –
C[C@H](Cn1cnc2c(N)ncnc21)OCP(=O)(O)OCCCOCCCCCCCCCCCCCCCC(F)(F)F.N [NP-PD-158, Ammonium [(1R)-2-(6-aminopurin-9-yl)-1-methyl-ethoxy]methyl-[3-(16,16,16-trifluorohexadecoxy)propoxy]phosphinate] | > 100 | > 20 | >2 | > 20 | – | – | – | – | – | – | – | – | –
CC(C)OC(=O)[C@H](C)N[P@](=O)(CO[C@H](C)Cn1cnc2c(N)ncnc21)Oc1ccccc1 [TAF, tenofovir alafenamide fumarate] | – | 21 | – | > 50 | – | 0.002 | 0.001 | 0.433 | 17 | 82 | 18 | 65 | –
C[C@H](Cn1cnc2c(N)ncnc21)OCP(=O)(O)O [TFV, tenofovir, reference compound] | – | 45.8 | >2 | > 50 | – | – | – | – | – | – | – | – | 2.06 µM and 1.6 µM
